The structures appear in SMILES notation.

The source of these data is patent US20240108006A1, “PESTICIDALLY ACTIVE HETEROAROMATIC COMPOUNDS” (SYNGENTA CROP PROTECTION AG, priority 2021, published 2024).

The subject of series [1] is Myzus persicae. Put plainly: Example B7: Myzus persicae (green peach aphid), intrinsic activity, sucrose solution 24-well. It is filed as in vivo. The note with it: 120 h, application rate of 12.5 ppm, 5 days after infestation, read-out: control (mortality). The method in brief:
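Compounds from 10,000 ppm DMSO stocks were mixed into sucrose solution in wells at a rate of 12.5 ppm. Aphid-infested pea seedlings were placed on a Parafilm membrane over the solution, so aphids fed through it. Mortality was scored 5 days after infestation.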

For another series, the system named is Spodoptera littoralis. Put plainly: Example B9: Spodoptera littoralis (Egyptian cotton leaf worm), cotton leaf discs, L1 larvae. Format: in vivo. The note with it: foliar, 72 h, application rate of 200 ppm, 3 days after infestation, read-out: control in at least one of the three categories (mortality, anti-feedant effect, or growth inhibition). The method in brief: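 Cotton leaf discs on agar sprayed with aqueous test solutions from 10,000 ppm DMSO stocks, dried, then infested with five L1 larvae. Mortality, anti-feeding and growth inhibition scored against untreated samples 3 days after infestation.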

For the next series, the system named is Chilo suppressalis. Briefly: Example B1: Chilo suppressalis (striped rice stemborer), artificial diet, L2 larvae. The note with it: 144 h, application rate of 200 ppm, 6 days after infestation, read-out: control in at least one of the three categories (mortality, anti-feedant effect, or growth inhibition). It is filed as in vivo. Put shortly:
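Artificial diet was treated with aqueous test solutions made from 10,000 ppm DMSO stocks, dried, then infested with L2 larvae (6-8 per well). Mortality, anti-feeding effect and growth inhibition were scored against untreated samples 6 days after infestation, and control was counted when any category exceeded untreated.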

Series [2] concerns Frankliniella occidentalis. Put plainly: Example B4: Frankliniella occidentalis (western flower thrips), feeding/contact activity. It is filed as in vivo. Particulars: 168 h, application rate of 200 ppm, 7 days after infestation. As for the experimental part:
Example B4: Frankliniella occidentalis (Western Flower Thrips):Feeding/Contact Activity
Sunflower leaf discs were placed on agar in 24-well microtiter plates and sprayed with aqueous test solutions prepared from 10,000 DMSO stock solutions. After drying the leaf discs were infested with a Frankliniella population of mixed ages. The samples were assessed for mortality 7 days after infestation.

The test system of another series is Diabrotica balteata. Put plainly: Example B2: Diabrotica balteata (corn root worm), maize sprouts, L2 larvae. It is filed as in vivo. Particulars: 96 h, application rate of 200 ppm, 4 days after infestation, read-out: control in at least one of the two categories (mortality or growth inhibition). The method in brief: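 Maize sprouts on agar sprayed with aqueous test solutions made from 10,000 ppm DMSO stocks, dried, then infested with 6 to 10 L2 larvae per well. Mortality and growth inhibition assessed versus untreated samples 4 days after infestation; application rate 200 ppm.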

A further series relates to Plutella xylostella. Put plainly: Example B8: Plutella xylostella (diamond back moth), artificial diet 24-well, eggs. It is filed as in vivo. Particulars: 192 h, application rate of 200 ppm, 8 days after infestation, read-out: effect in at least one of the two categories (mortality or growth inhibition). The method in brief: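 Artificial diet in 24-well plates treated with aqueous dilutions of DMSO stock (10,000 ppm stock) and dried, then infested with Plutella eggs. Mortality and growth inhibition scored versus untreated samples 8 days after infestation.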

Another series concerns Euschistus heros. Put plainly: Example B3: Euschistus heros (neotropical brown stink bug), soybean leaves, N2 nymphs. Format: in vivo. The note with it: 120 h, application rate of 200 ppm, 5 days after infestation, read-out: control in at least one of the two categories (mortality or growth inhibition). As for the experimental part:
Example B3: Euschistus heros (Neotropical Brown Stink Bug)
Soybean leaves on agar in 24-well microtiter plates were sprayed with aqueous test solutions prepared from 10,000 ppm DMSO stock solutions. After drying the leaves were infested with N2 nymphs. The samples were assessed for mortality and growth inhibition in comparison to untreated samples 5 days after infestation.
The following compounds gave an effect of at least 80% control in at least one of the two categories (mortality or growth inhibition) at an application rate of 200 ppm: […]

The test system of series [3] is Myzus persicae. Put plainly: Example B5: Myzus persicae (green peach aphid), feeding/contact activity. Format: in vivo. Particulars: 144 h, application rate of 200 ppm, 6 days after infestation. As for the experimental part: Example B5: Myzus persicae (Green Peach Aphid):Feeding/Contact Activity
Sunflower leaf discs were placed onto agar in a 24-well microtiter plate and sprayed with aqueous test solutions prepared from 10,000 ppm DMSO stock solutions. After drying, the leaf discs were infested with an aphid population of mixed ages. The samples were assessed for mortality 6 days after infestation.

Series [4] relates to Myzus persicae. Briefly: Example B6: Myzus persicae (green peach aphid), systemic activity, pea seedlings. The note with it: 144 h, test rate of 24 ppm, 6 days after placing seedlings into test solutions. It is filed as in vivo. As for the experimental part:
Example B6: Myzus persicae (Green Peach Aphid). Systemic Activity
Roots of pea seedlings infested with an aphid population of mixed ages were placed directly into aqueous test solutions prepared from 10,000 DMSO stock solutions. The samples were assessed for mortality 6 days after placing seedlings into test solutions.

In general, melting point refers to the temperature, or range, at which the solid turns liquid. Molecule `C[C@H](NC(=S)Nc1cc(Cl)cc(C(F)(F)F)c1)c1ncnn1-c1ncccn1` returned a melting point of 106 to 108 °C.

Turning to `CC(NC(=O)Nc1cc(C(F)(F)F)cc(C(F)(F)F)c1)c1ncnn1-c1ncccn1` (centres unmarked), the melting point was in the range of 124 to 127 °C.

What is called mortality is the share of the test organisms that died. Regarding `C[C@H](NC(=O)Nc1cnc(C(F)(F)F)cc1Br)c1ncnn1-c1ncccn1` [Example P280, 1-[4-bromo-6-(trifluoromethyl)-3-pyridyl]-3-[(1S)-1-(2-pyrimidin-2-yl-1,2,4-triazol-3-yl)ethyl]urea], in the series with Myzus persicae [1], the mortality at 12.5 ppm is at least 80%. The percent control (mortality, anti-feedant effect or growth inhibition) at 200 ppm with Spodoptera littoralis and with Chilo suppressalis was at least 80% in each case. In series [2], this molecule had a mortality at 200 ppm of at least 80%. The percent control (mortality or growth inhibition) at 200 ppm in the series with Diabrotica balteata and with Euschistus heros was at least 80% each time. Moreover, the percent effect (mortality or growth inhibition) at 200 ppm in the series with Plutella xylostella is at least 80%.

The molecule `Cc1cc(C(F)(F)F)ncc1NC(=O)N[C@@H](C)c1ncnn1-c1ncccn1` [Example P328, 1-[4-methyl-6-(trifluoromethyl)-3-pyridyl]-3-[(1S)-1-(2-pyrimidin-2-yl-1,2,4-triazol-3-yl)ethyl]urea] registered a mortality at 200 ppm in the series on Myzus persicae [3] of at least 80%. Moreover, the mortality at 12.5 ppm in the series on Myzus persicae [1] was at least 80%. Further, in the series on Chilo suppressalis, the percent control (mortality, anti-feedant effect or growth inhibition) at 200 ppm is at least 80%. Also, in the series with Euschistus heros, the percent control (mortality or growth inhibition) at 200 ppm is at least 80%.

With `COC(=O)c1cc(Cl)c(Cl)cc1NC(=O)N[C@@H](C)c1ncnn1-c1ncccn1` [Example P199, methyl 4,5-dichloro-2-[[(1S)-1-(2-pyrimidin-2-yl-1,2,4-triazol-3-yl)ethyl]carbamoylamino]benzoate], the mortality at 200 ppm in series [2] was at least 80%.

Turning to `C[C@H](NC(=O)Nc1cc(OC(F)(F)Cl)c(Cl)cc1F)c1ncnn1-c1ncccn1` [Example P219, 1-[4-chloro-5-[chloro(difluoro)methoxy]-2-fluoro-phenyl]-3-[(1S)-1-(2-pyrimidin-2-yl-1,2,4-triazol-3-yl)ethyl]urea], the mortality at 12.5 ppm in the series on Myzus persicae [1] is at least 80%. Moreover, the percent control (mortality, anti-feedant effect or growth inhibition) at 200 ppm with Spodoptera littoralis and in the series on Chilo suppressalis was at least 80% throughout. Also, the mortality at 200 ppm in series [2] is at least 80%. Also, the percent control (mortality or growth inhibition) at 200 ppm in the series on Diabrotica balteata is at least 80%. Besides, the percent effect (mortality or growth inhibition) at 200 ppm in the series with Plutella xylostella is at least 80%.

For `Cc1cccc(Cl)c1NC(=O)N[C@@H](C)c1ncnn1-c1ncccn1` [Example P71, 1-(2-chloro-6-methyl-phenyl)-3-[(1S)-1-(2-pyrimidin-2-yl-1,2,4-triazol-3-yl)ethyl]urea], the mortality at 200 ppm in series [2] was at least 80%.

`C[C@@H](c1ncnn1-c1ncccn1)N1CCN(c2cc(OC(F)(F)C(F)F)c(Cl)cc2Cl)C1=O` yielded a melting point of 207 to 209 °C.

For `CC(NC(=O)Nc1ccc(C(F)(F)F)cc1C(F)(F)F)c1ncnn1-c1ncccn1` (centres unmarked) [Example P1, 1-[2,4-bis(trifluoromethyl)phenyl]-3-[1-(2-pyrimidin-2-yl-1,2,4-triazol-3-yl)ethyl]urea], in the series with Myzus persicae [1], the mortality at 12.5 ppm is at least 80%. Also, the percent control (mortality, anti-feedant effect or growth inhibition) at 200 ppm in the series on Spodoptera littoralis and in the series on Chilo suppressalis was at least 80% each time. Moreover, the percent control (mortality or growth inhibition) at 200 ppm in the series on Diabrotica balteata and with Euschistus heros was at least 80% throughout. The percent effect (mortality or growth inhibition) at 200 ppm with Plutella xylostella is at least 80%.

In the series with Myzus persicae [3], `CC(NC(=O)Nc1cnc(C(F)(F)F)cc1Cl)c1nccnc1-c1ncccn1` (centres unmarked) [Example P244, 1-[4-chloro-6-(trifluoromethyl)-3-pyridyl]-3-[1-(3-pyrimidin-2-ylpyrazin-2-yl)ethyl]urea] showed a mortality at 200 ppm of at least 80%. Further, the mortality at 12.5 ppm with Myzus persicae [1] was at least 80%. Besides, the percent control (mortality, anti-feedant effect or growth inhibition) at 200 ppm in the series with Spodoptera littoralis and with Chilo suppressalis was at least 80% throughout. Also, in the series on Plutella xylostella, the percent effect (mortality or growth inhibition) at 200 ppm is at least 80%. Further, the mortality at 24 ppm in the series with Myzus persicae [4] is at least 80%.

In the case of `C[C@H](NC(=O)Nc1cnc(C(F)(F)F)cc1I)c1ncnn1-c1ncccn1`, the melting point lay in the range of 183 to 186 °C.

As to `C[C@H](NC(=O)Nc1cc(OCc2ccc(Cl)cn2)c(Cl)cc1Cl)c1ncnn1-c1ncccn1` [Example P142, 1-[2,4-dichloro-5-[(5-chloro-2-pyridyl)methoxy]phenyl]-3-[(1S)-1-(2-pyrimidin-2-yl-1,2,4-triazol-3-yl)ethyl]urea], the mortality at 200 ppm in [2] is at least 80%.

In turn, `Cc1cc2c(cc1NC(=O)N[C@@H](C)c1ncnn1-c1ncccn1)OCC(=O)N2` [Example P208, 1-(6-methyl-3-oxo-4H-1,4-benzoxazin-7-yl)-3-[(1S)-1-(2-pyrimidin-2-yl-1,2,4-triazol-3-yl)ethyl]urea] gave a mortality at 200 ppm in series [2] of at least 80%.

In turn, `C[C@@H]1CN(C(=O)c2ccc(-n3ncnc3[C@H](C)NC(=O)Nc3cc(C(F)(F)F)c(Cl)cc3Cl)nc2)C[C@H](C)O1` displayed a melting point of 138 to 140 °C.

Take `C[C@H](NC(=O)N(C)c1cnc(C(F)(F)F)cc1Br)c1ncnn1-c1ncccn1` [Example P273, 1-[4-bromo-6-(trifluoromethyl)-3-pyridyl]-1-methyl-3-[(1S)-1-(2-pyrimidin-2-yl-1,2,4-triazol-3-yl)ethyl]urea]: the mortality at 12.5 ppm with Myzus persicae [1] is at least 80%. Moreover, the percent control (mortality, anti-feedant effect or growth inhibition) at 200 ppm in the series on Spodoptera littoralis and in the series on Chilo suppressalis was at least 80% each time. In the series on Plutella xylostella, the percent effect (mortality or growth inhibition) at 200 ppm was at least 80%. For the same molecule, the mortality at 24 ppm with Myzus persicae [4] was at least 80%. Moreover, the percent control (mortality or growth inhibition) at 200 ppm with Euschistus heros was at least 80%.

The molecule `C[C@H](NC(=O)Nc1cc(Cl)c(Cl)cc1I)c1ncnn1-c1ncccn1` (stereo in doubt) registered a melting point of 236 to 249 °C.

With `C[C@@H](c1ncnn1-c1ncccn1)N(C)C(=O)Nc1cnc(C(F)(F)F)cc1Cl` [Example P397, 3-[4-chloro-6-(trifluoromethyl)-3-pyridyl]-1-methyl-1-[(1S)-1-(2-pyrimidin-2-yl-1,2,4-triazol-3-yl)ethyl]urea], in the series on Myzus persicae [1], the mortality at 12.5 ppm is at least 80%. The percent control (mortality, anti-feedant effect or growth inhibition) at 200 ppm in the series on Chilo suppressalis was at least 80%. For the same molecule, the percent effect (mortality or growth inhibition) at 200 ppm in the series on Plutella xylostella was at least 80%. Moreover, in the series on Myzus persicae [4], the mortality at 24 ppm is at least 80%. The percent control (mortality or growth inhibition) at 200 ppm in the series on Euschistus heros was at least 80%.

Turning to `C[C@H](NC(=O)Nc1ccc(F)cc1C#N)c1ncnn1-c1ncccn1` [Example P62, 1-(2-cyano-4-fluoro-phenyl)-3-[(1S)-1-(2-pyrimidin-2-yl-1,2,4-triazol-3-yl)ethyl]urea], the mortality at 200 ppm in the series with Myzus persicae [3] was at least 80%. The percent control (mortality or growth inhibition) at 200 ppm in the series with Euschistus heros is at least 80%.

In the case of `C[C@H](NC(=O)Nc1cc(F)c(Br)cc1OC(F)F)c1ncnn1-c1ncccn1` [Example P390, 1-[4-bromo-2-(difluoromethoxy)-5-fluoro-phenyl]-3-[(1S)-1-(2-pyrimidin-2-yl-1,2,4-triazol-3-yl)ethyl]urea], the mortality at 12.5 ppm in the series on Myzus persicae [1] is at least 80%. Further, the percent control (mortality, anti-feedant effect or growth inhibition) at 200 ppm with Spodoptera littoralis and with Chilo suppressalis was at least 80% throughout. For the same molecule, the percent control (mortality or growth inhibition) at 200 ppm with Diabrotica balteata and in the series with Euschistus heros was at least 80% throughout. Moreover, the percent effect (mortality or growth inhibition) at 200 ppm with Plutella xylostella is at least 80%.

Consider `C[C@H](NC(=O)Nc1ccc(Br)c(Br)c1)c1nccnc1-c1ncccn1`, for which the melting point is 220 to 222 °C.
